The target of experiment [1] is T1, αS seed-catalyzed aggregation (Homo sapiens, UniProt P37840).
T1 construct: made in house; host or cells: Escherichia coli BL21(DE3), periplasm
The experiment in a line: Seed-catalyzed ThT aggregation assay (10% WT αS seeds), WT αS. Particulars: equimolar ratio. In kind it is biochemical. How it is done: Seed-catalyzed αS aggregation assay was performed similarly to a previously described protocol. Briefly, 100 μM monomeric WT αS solution (200 μL, in 1x PBS buffer) was placed into a ThermoMixer (Eppendorf, Hamberg, Germany) and shook for five days at a rate of […] and 37 °C. The solution was sonicated for 10 min and used as αS seeds. The seed-catalyzed aggregation of WT αS/ αS variants was performed by adding αS seeds (10% seeds, αS in monomeric concentration, v/v) into 140 μL of fresh 100 μM WT αS/ αS variants solution and aggregation was started with constant shaking at a rate of […] and 37 °C. The aggregation of proteins was monitored at the indicated times (See the main manuscript) using the above-mentioned method.
The ThT aggregation assay for each protein (WT αS and αS variants) in the presence of SK-129 was carried out the above-mentioned method. SK-129 (from 10 mM stock solution in DMSO) was added at an equimolar ratio (1% DMSO, v/v) to the proteins at the start of the aggregation experiment. The concentration of DMSO was kept constant (1%, v/v) in protein (WT αS and αS variants), control, and protein+molecule solutions. The kinetic profiles of protein aggregation were processed using OriginPro software (Version 9.1). Kinetic curves were fit using a built-in sigmoidal fit in the OriginLab.

The test system of experiment [2] is HEK293 cells expressing αS-A53T-YFP. The experiment in a line: MTT assay, HEK293 cells αS-A53T-YFP, recombinant αS fibers. The class given is cell-based. Set-up: key to MTT read-out (viability of HEK cells): absorbance at 570 nm (dissolved formazan). Particulars: for MTT read-out (viability of HEK cells): 7 μM αS + SK-129 equimolar. How it is done: The HEK293 cells that stably express αS-A53T-YFP and αS-YFP were grown in DMEM with 10% FBS and 1% pen/strep and cultured in an incubator at 37 °C and 5% CO2(g). A total of 60,000 cells per well in 300 µL media were plated in a µ-slide eight-well plate (Ibidi, Munich, Germany) and incubated for 24 h to adhere to the plate. […] Next, the plate was incubated for 24 h, followed by the addition of 30 µL of 1x PBS buffer containing MTT dye (in 1x PBS buffer, 5 mg/mL) to each well. The plates were wrapped in aluminum foil and incubated for 3 h. After 3 h, all liquid was aspirated carefully without disturbing the formazan crystals. To each well, 300 µL of DMSO was added to dissolve the crystals. Once dissolved, the DMSO solution was transferred to a clear 96-well plate (100 µL/well). The absorbance was read on a 96-well plate reader at 570 nm. The cytotoxicity of the HEK cells was monitored for up to 4 days.
The seeds were generated by aggregating recombinant αS (100 µM) in the absence and presence of SK-129 at an equimolar ratio under the ThT aggregation kinetic conditions for seven days. In the case of seeds from the brain, we used a PMCA sample (5th cycle) generated from the brain seeds in the absence and presence of SK-129 at an equimolar ratio.
On the technique in general: Tetrazolium assays rely on reduction of a dye to a coloured formazan, in cell work by metabolically active cells.

Experiment [3] concerns HEK cells expressing αS-A53T-YFP. The experiment in a line: Intracellular seed catalyzed aggregation in HEK cells, inclusion count. To be noted: 10 µM SK-129 added 8 h after αS seeds (0.125 µM). In kind it is cell-based. How it is done: (§1) The HEK cells (200,000 cells/mL) were plated in an µ-slide eight-well plate (300 µL/well) and incubated at 37 °C and 5% CO2 (g), and allowed to adhere to the plate for 24 h in media (DMEM, 10% FBS, 1% pen/strep). […] The HEK cells were incubated with αS fibrils for 8 h followed by the addition of 10 µM SK-129 for 300 µL media in each well (0.3 µL of 10 mM stock solution in DMSO, total DMSO = 0.1% v,v). The eight-well plate was incubated for a total of 24 h. The eight-well plate after 24 h was used for both confocal imaging and for the cytotoxicity measurements using MTT assay (2 wells/condition, 300 µL/well). In each experiment, 2 wells were used for each condition, including control (only media and DMSO), fibrils, and fibrils+SK-129.
The HEK cells in the eight-well plate were treated with a Hoechst 33342 dye solution for 1 h by adding 3 µL to each well (from 1 mg/ml solution in 1x PBS buffer). The Hoechst 33342 solution was carefully mixed with media by pipetting up and down for a few times. […] The counting of inclusions was carried out for six different experiments and for each experiment, 100 cells were counted from at least four different locations from the eight-well plate. The cells were counted manually by counting the number of Hoechst 33342 dye-stained nuclei in the cells. The inclusions in the cells were counted manually at different locations in the eight-well plate. […]

Experiment [4] has the same test system. The experiment in a line: Intracellular seed catalyzed aggregation in HEK cells, MTT viability. Particulars: 10 µM SK-129 added 8 h after PD seeds, up to four days. In kind it is cell-based. How it is done: as §1
The HEK cells in the eight-well plate were treated with 30 µL of 1x PBS buffer containing MTT dye (5 mg/mL in 1x PBS buffer) to each well. The plates were wrapped in aluminum foil and incubated for 3 h. After 3 h, all liquid was aspirated carefully without disturbing the formazan crystals. To each well, 300 µL of DMSO was added to dissolve the crystals. Once dissolved, the DMSO solution was transferred to a clear 96-well plate (100 µL/well). The absorbance was read on a 96-well plate reader at 570 nm. The cytotoxicity assay was conducted up to four days from when the protein conditions were added to the cells. […]

SMILES strings stand for the structures.

For the compound `COC(=O)c1cc(OCC(=O)O)c2cccc(NC(=O)c3cc(OC(C)C)c4cccc(NC(=O)c5cc(OCC(=O)O)c6cccc(NC(=O)c7cc(OC(C)C)c8cccc([N+](=O)[O-])c8n7)c6n5)c4n3)c2n1` [SK-129], in experiment [1], the “effect on seed-catalyzed aggregation” value is “wholly suppressed”. Besides, the “MTT read-out (viability of HEK cells)” value in experiment [2] (trial 1) was determined as 0.806; in experiment [2] (trial 2) it was 0.8743; in experiment [2] (trial 3) it was 0.8833; in experiment [2] (trial 4) it was 0.8674; in experiment [2] (trial 5), 0.8626; in experiment [2] (trial 6), 0.8492. Moreover, the “MTT read-out (viability of HEK cells)” value in experiment [2] (trial 7) is 0.941; in experiment [2] (trial 8), 0.878; in experiment [2] (trial 9), 0.892; in experiment [2] (trial 10) it was 0.917; in experiment [2] (trial 11), 0.805; in experiment [2] (trial 12), 0.8882. In addition, the “MTT read-out (viability of HEK cells)” value worked out at 0.8431 in experiment [2] (trial 13), 0.8823 in experiment [2] (trial 14), 0.919 in experiment [2] (trial 15) and 0.8589 in experiment [2] (trial 16). The “viability of HEK cells” value in experiment [2] (αS aggregated with SK-129 equimolar, 7 μM, 24 h, αS alone 68%) is given as 94%. The number of inclusions was 1–2 inclusions/100 cells in experiment [3] (total 24 h, without SK-129 ~19) and 2–3 inclusions/100 cells in experiment [3] (up to 4 days). The “cell viability of HEK cells” value in experiment [4] is recorded as “significantly higher upto four days”.

These data come from publication PMC9046208, “Foldamers reveal and validate therapeutic targets associated with toxic α-synuclein self-assembly” (Nature Communications, 2022).
